Experimental data published in article PMC8126888 (RSC Medicinal Chemistry, 2020).
Like-named read-outs stand apart in the source and are kept apart here.

Key:
in vitro [1] = conditions: human
[2] = test system: Leishmania infantum MHOM/MA(BE)/67/ITMAP263 intracellular amastigotes; test: microbe, parasite or virus in culture; conditions: Macrophage, in Mus musculus
[3] = test system: primary peritoneal mouse macrophages (PMM); test: cells; conditions: Macrophage
[4] = test system: Trypanosoma cruzi, Tulahuen CL2, beta-galactosidase strain; test: microbe, parasite or virus in culture
physchem = conditions: HPLC, Ascentis Express RP Amide column
in vitro [5] = conditions: human, microsomes, intrinsic in vitro clearance, liver microsomes
in vitro [6] = conditions: mouse, microsomes, pH 7.4, Microsome Clint Mouse, intrinsic in vitro clearance, liver microsomes
[7] = read-out: L. Inf. pIC50 (converted)
[8] = read-out: L. infantum MHOM/MA(BE)/67/ITMAP263 intracellular amastigotes IC50
[9] = MRC5, read-out: T. cruzi Tulahuen C4 (LacZ) IC50
[10] = read-out: L. Inf. pIC50, from L. infantum intracellular amastigote IC50 (converted)
[11] = read-out: L. infantum MHOM/MA(BE)/67/ITMAP263 intracellular amastigotes IC50, intracellular amastigotes
[12] = read-out: L. inf. pIC50, intracellular amastigotes in PMM (converted), geometric mean of a minimum of two experiments ± standard error
[13] = read-out: PMM pIC50 (converted)
[14] = pH 7.4, elog D, HPLC measured log D, pH 7.4
[15] = read-out: L. infantum MHOM/MA(BE)/67/ITMAP263 intracellular amastigotes IC50 (uM), intracellular amastigotes
[16] = MRC5, read-out: T. cruzi Tulahuen C4 (LacZ) IC50 (uM)

| Structure (SMILES) | CC50 at 3 days (in vitro [1]) [µM] | IC50 [2, 7] [µM] | IC50 [2, 8] [µM] | IC50 ([3]; read-out: PMM IC50) [µM] | IC50 [4, 9] [µM] | also measured |
| --- | --- | --- | --- | --- | --- | --- |
| O=C(NC(Cn1ccnc1)c1ccccc1)c1ccc(-n2cnnn2)cc1 (stereo not shown) [DNDI0003363392] | > 55.4 | > 49.4 | > 49.4 | > 55.4 | 9 |  |
| COc1ccc(S(=O)(=O)N(CC(=O)NC2CC2)Cc2ccccc2)cc1C [DNDI0003363400] | > 55.4 | > 49.4 | > 49.4 | > 55.4 | > 55.4 |  |
| COc1ccc(OC)c(S(=O)(=O)N2CCCC2c2ccc(F)cc2)c1 (stereo not shown) [DNDI0003363388] | > 32 | 9.55 | 9.59 | > 32 | 25.6 |  |
| COc1ccc(Cl)cc1S(=O)(=O)N(CC(=O)N1CCOCC1)Cc1ccccc1 [SCYX0001379806] | > 32 | > 32 | > 32 | > 32 | > 32 |  |
| CC[C@]1(O)C[C@@H]2CN(CCc3c([nH]c4ccccc34)[C@@](C(=O)OC)(c3cc4c(cc3OC)N(C)[C@H]3[C@@](O)(C(=O)OC)[C@H](OC(C)=O)[C@]5(CC)C=CCN6CC[C@]43[C@@H]65)C2)C1 [vinblastine, reference compound] | < 0.01 |  |  |  |  |  |
| CCN(CC)C(=O)CN(Cc1ccccc1)S(=O)(=O)c1ccc(OC)c(OC)c1 [DNDI0003363394] | > 55.4 | 32.4 | 32.1 | > 55.4 | > 55.4 |  |
| COc1ncc(C#N)cc1S(=O)(=O)N(Cc1ccc(F)cc1)Cc1ccc(F)cc1 [DNDI0003369123] | > 64 |  |  | > 64 | 8.4 | IC50 [2, 10]: 7.59 µM; IC50 [2, 11]: 7.6 µM; chromatographic logD (physchem; pH 7.4, eLogD, experimental): 4.5 |
| COCC1COc2ccc(F)cc2S(=O)(=O)N1Cc1ccccc1 (stereo not shown) [DNDI0003369451] | > 64 |  |  | > 64 | > 64 | IC50 [2, 10]: > 64 µM; IC50 [2, 11]: > 64 µM |
| COc1ccc(Cl)cc1S(=O)(=O)N(CC(=O)N1CCN(C)CC1)Cc1ccccc1 [DNDI0003363387] | > 32 | > 32 | > 32 | > 32 | > 32 |  |
| COc1ccc(OC)c(S(=O)(=O)N(Cc2ccc(F)cc2)Cc2ccc(F)cc2)c1 [Compound 32] |  |  |  |  |  | IC50 [2, 12]: 0.537 µM; IC50 [3, 13]: > 64.6 µM; chromatographic logD (physchem; [14]): 4.7 |
| O=S(=O)(c1cc(F)ccc1F)N(Cc1ccc(F)cc1)Cc1ccc(F)cc1 [Compound 12] |  |  |  |  |  | IC50 [2, 12]: > 64.6 µM; IC50 [3, 13]: > 64.6 µM |
| COCCN(Cc1ccccc1)S(=O)(=O)c1cc(C(=O)N2CCNCC2)ccc1OC [DNDI0003392127] | > 64 |  |  |  |  | IC50 [2, 10]: 36.3 µM; IC50 [2, 15]: 35.9 µM; IC50 ([3]; read-out: PMM IC50 (uM)): > 64 µM; IC50 [4, 16]: 13.4 µM |
| COc1ccc(OC)c(S(=O)(=O)n2cc(C)nc2-c2ccccc2)c1 [DNDI0003363402] | > 55.4 | > 55.4 | > 55.4 | > 55.4 | > 55.4 |  |
| O=S(=O)(c1cc(F)ccc1F)N(Cc1ccccc1)CC(O)c1ccc(F)cc1 (stereo not shown) [DNDI0003371159] | 18.7 |  |  | > 64 | 7.27 | IC50 [2, 10]: 33.1 µM; IC50 [2, 11]: 33.1 µM |
| N#Cc1ccccc1S(=O)(=O)N(Cc1ccccc1)Cc1ccccc1 [Compound 13] |  |  |  |  |  | IC50 [2, 12]: 11.2 µM; IC50 [3, 13]: > 64.6 µM; chromatographic logD (physchem; [14]): 4.3; microsomal CLint at 0.5 h, 0.5 µM (in vitro [5]; pH 7.4, Microsome Clint Human): 699 µL/min/mg |
| COc1ccc(Cl)cc1S(=O)(=O)N(CC(=O)N1CCCC1)Cc1ccccc1 [DNDI0003363389] | > 32 | 15.5 | 15.5 | > 32 | > 32 |  |
| O=C(Cn1ccnc1[N+](=O)[O-])NCc1ccccc1 [Benznidazole, reference compound] |  |  |  |  |  | IC50 ([4]; MRC5, […], reference drug, T. cruzi, 7 days): 2 to 5 µM |
| CN(C)CCN(Cc1ccccc1)S(=O)(=O)c1ccccc1OC(F)(F)F [DNDI0003367256] | 53.4 |  |  | 45.2 | 32 | IC50 [2, 10]: 8.71 µM; IC50 [2, 11]: 8.64 µM |
| COc1ccc(C#N)cc1S(=O)(=O)N(Cc1ccccc1)Cc1ccccc1 [Compound 17] |  |  |  |  |  | IC50 [2, 12]: 0.437 µM; IC50 [3, 13]: > 64.6 µM; chromatographic logD (physchem; [14]): 4.3; microsomal CLint at 0.5 μM (in vitro [5]; pH 7.4, Microsome Clint Human): 304 µL/min/mg |
| COCCNc1ccc(S(=O)(=O)N(CCOC)Cc2ccccc2)cc1 [DNDI0003366102] | 38.1 |  |  | > 64 | 34.8 | IC50 [2, 10]: 38.9 µM; IC50 [2, 11]: 38.6 µM |

| Structure (SMILES) | CC50 at 3 days (in vitro [1]) [µM] | IC50 [2, 7] [µM] | IC50 [2, 8] [µM] | IC50 ([3]; read-out: PMM IC50) [µM] | IC50 [4, 9] [µM] | also measured |
| --- | --- | --- | --- | --- | --- | --- |
| COc1ccc(C)cc1S(=O)(=O)N(CC(N)=O)Cc1ccccc1 [DNDI0003363397] | > 55.4 | > 55.4 | > 55.4 | > 55.4 | > 55.4 |  |
| COCCN(Cc1ccccc1)S(=O)(=O)c1cc(OC)ccc1OC [Compound 39] |  |  |  |  |  | IC50 [2, 12]: 2.09 µM; IC50 [3, 13]: > 64.6 µM; chromatographic logD (physchem; [14]): 3.5; microsomal CLint at 0.5 μM (in vitro [5]; pH 7.4, Microsome Clint,u Human, Table 2): 253 µL/min/mg |
| COc1ccccc1S(=O)(=O)N(Cc1ccccc1)Cc1ccccc1 [Compound 10] |  |  |  |  |  | IC50 [2, 12]: 0.331 µM; IC50 [3, 13]: > 64.6 µM |
| O=C(COc1ccc(Cl)cc1S(=O)(=O)NCc1ccccc1)N1CCOCC1 [DNDI0003363401] | > 55.4 | > 55.4 | > 55.4 | > 55.4 | > 55.4 |  |
| CC(=O)O[C@H]1C(=O)[C@@]2(C)[C@H]([C@H](OC(=O)c3ccccc3)[C@]3(O)C[C@H](OC(=O)[C@H](O)[C@@H](NC(=O)c4ccccc4)c4ccccc4)C(C)=C1C3(C)C)[C@]1(OC(C)=O)CO[C@@H]1C[C@@H]2O [paclitaxel, reference compound] | < 0.01 |  |  |  |  |  |
| CC(=O)Nc1ccc(Cl)c(C(=O)NC(Cn2ccnc2)c2ccccc2)c1 (stereo not shown) [DNDI0003363391] | > 55.4 | > 55.4 | > 55.4 | > 55.4 | > 55.4 |  |
| COc1ccc(Cl)cc1S(=O)(=O)N(Cc1ccccc1)Cc1ccccc1 [Compound 19] |  |  |  |  |  | IC50 [2, 12]: 1.38 µM; IC50 [3, 13]: > 64.6 µM; microsomal CLint at 0.5 μM (in vitro [6]): 1350 µL/min/mg; microsomal CLint at 0.5 μM (in vitro [5]; pH 7.4, Microsome Clint Human): 407 µL/min/mg |
| O=S(=O)(c1cc(F)ccc1F)N(Cc1ccc(F)cc1)Cc1ccc(F)cc1 [DNDI0003371158] | > 64 |  |  | > 64 | > 64 | IC50 [2, 10]: > 64 µM; IC50 [2, 11]: > 64 µM |
| COc1ccc(C)cc1S(=O)(=O)N(CC(=O)NCc1ccc(Cl)cc1)Cc1ccccc1 [DNDI0003363396] | > 55.4 | 25.7 | 25.7 | > 55.4 | 6.02 |  |
| COc1ccc(OC)c(S(=O)(=O)N2CCc3ccccc3C2)c1 [DNDI0003363398] | > 55.4 | > 55.4 | > 55.4 | > 55.4 | > 55.4 |  |
| COc1ccc(CN2CCOCC2)cc1S(=O)(=O)N(Cc1ccc(F)cc1)Cc1ccc(F)cc1 [Compound 24] |  |  |  |  |  | IC50 [2, 12]: 0.525 µM; IC50 [3, 13]: > 64.6 µM; microsomal CLint at 0.5 μM (in vitro [6]): 3200 µL/min/mg; microsomal CLint at 0.5 h, 0.5 µM (in vitro [5]; pH 7.4, Microsome Clint Human): 49.4 µL/min/mg |
| COCCN(Cc1ccccc1)S(=O)(=O)c1cc(C(=O)N2CCOCC2)ccc1OC [DNDI0003392126] | > 64 |  |  |  |  | IC50 [2, 10]: 43.7 µM; IC50 [2, 15]: 44 µM; IC50 ([3]; read-out: PMM IC50 (uM)): > 64 µM; IC50 [4, 16]: > 64 µM |
| O=S1(=O)c2cc(F)ccc2OCCN1Cc1ccccc1 [DNDI0003368292] | > 64 |  |  | > 64 | 48.9 | IC50 [2, 10]: > 64 µM; IC50 [2, 11]: > 64 µM |
| COc1ccc(C)cc1S(=O)(=O)N(CC(=O)O)Cc1ccccc1 [DNDI0003363399] | > 55.4 | > 55.4 | > 55.4 | > 55.4 | > 55.4 |  |
| COc1ccc(F)cc1S(=O)(=O)N(Cc1ccccc1)Cc1ccccc1 [Compound 18] |  |  |  |  |  | IC50 [2, 12]: 1.38 µM; IC50 [3, 13]: > 64.6 µM; chromatographic logD (physchem; [14]): 4.7; microsomal CLint at 0.5 μM (in vitro [5]; pH 7.4, Microsome Clint Human): 955 µL/min/mg |
| COc1ccc(C)cc1S(=O)(=O)N(CC(=O)Nc1ccccc1)Cc1ccccc1 [DNDI0003363395] | > 55.4 | > 49.4 | > 49.4 | > 55.4 | 19.8 |  |
| COc1ccc(C)cc1S(=O)(=O)N(CC(=O)N1CCOCC1)Cc1ccccc1 [DNDI0003363393] | > 55.4 | 19.1 | 18.9 | > 55.4 | > 55.4 |  |
| COc1ccc(OC)c(S(=O)(=O)N(Cc2ccccc2)C2CCN(C(C)=O)CC2)c1 [DNDI0003366132] | > 64 |  |  | > 64 | > 64 | IC50 [2, 10]: > 64 µM; IC50 [2, 11]: > 64 µM; chromatographic logD (physchem; pH 7.4, eLogD, experimental): 3.1 |
| O=S1(=O)c2ccccc2OCC(Cc2ccccc2)N1Cc1ccccc1 (stereo not shown) [DNDI0003370081] | > 64 |  |  | 45.2 | > 64 | IC50 [2, 10]: 33.1 µM; IC50 [2, 11]: 33.5 µM; chromatographic logD (physchem; pH 7.4, eLogD, experimental): 5 |
